Data on five molecules can be found in patent publication US20240343717A1, “MICROBIOCIDAL PYRAZOLE DERIVATIVES” (SYNGENTA CROP PROTECTION AG, priority 2021, published 2024).

The structures appear in SMILES notation.

One data set relates to Sclerotinia sclerotiorum. Briefly: Sclerotinia sclerotiorum / liquid culture (cottony rot). The data set is classed as cell-based. Conditions: growth inhibition photometrically 3-4 days after application, read-out: control of Sclerotinia sclerotiorum. Summed up:
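Mycelial fragments from fresh liquid culture in potato dextrose broth added to test compound in DMSO. Incubation at 24° C; growth inhibition read photometrically 3-4 days after application.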

For data set [1], the system named is Botryotinia fuckeliana (Botrytis cinerea). Briefly: Botryotinia fuckeliana (Botrytis cinerea) / liquid culture (gray mould). The settings on record: growth inhibition photometrically 3-4 days after application, read-out: control of Botryotinia fuckeliana. In kind it is cell-based. Summed up: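 Conidia suspended in Vogels broth and added to compound dispensed from DMSO. Incubated at 24°C, with growth inhibition measured photometrically 3–4 days later.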

The test system of data set [2] is Phaeosphaeria nodorum (Septoria nodorum). The data set is described as follows: Phaeosphaeria nodorum (Septoria nodorum) / wheat / leaf disc preventative (glume blotch). In kind it is in vivo. The settings on record: Parastagonospora nodorum, foliar, wheat leaf segments, inoculated 2 days after application. An outline of the steps:
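Wheat cv. Kanzler leaf segments on agar sprayed preventatively with formulated compound diluted in water, then inoculated with spore suspension 2 days after application. Incubated at 20° C, 75% rh, 12 h light/12 h dark; percent disease control versus untreated scored 5-7 days after application.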

The subject of data set [3] is Magnaporthe grisea (Pyricularia Oryzae). The data set is described as follows: whole plant or invertebrate. The data set is classed as in vivo. Conditions: foliar, read-out: control of Magnaporthe grisea.
Data set [4] relates to Fusarium culmorum. The data set is described as follows: microbe, parasite or virus in culture. In kind it is cell-based. The settings on record: read-out: control of Fusarium culmorum.
For data set [5], the system named is Glomerella lagenarium (Colletotrichum lagenarium). Briefly: Glomerella lagenarium (Colletotrichum lagenarium) / liquid culture (anthracnose). In kind it is cell-based. Conditions: Colletotrichum orbiculare, growth inhibition photometrically 3-4 days after application, read-out: control of Glomerella lagenarium. Summed up: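 Cryo-stored conidia in potato dextrose broth were added to test compound in DMSO. Plates were incubated at 24° C, and growth inhibition was read photometrically 3-4 days after application.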

Data set [6] relates to Mycosphaerella arachidis (Cercospora arachidicola). The data set is described as follows: Mycosphaerella arachidis (Cercospora arachidicola) / liquid culture (early leaf spot). In kind it is cell-based. The settings on record: growth inhibition photometrically 4-5 days after application, read-out: control of Mycosphaerella arachidis. Summed up:
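Spores taken straight from cryostorage are suspended in potato dextrose broth and added to test compound in DMSO. Plates are incubated at 24° C. Growth inhibition is scored photometrically 4-5 days after application.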

In a further data set the test system is Alternaria solani. Briefly: Alternaria solani / tomato / leaf disc (early blight). Conditions: foliar, tomato leaf disks, sprayed 2 days before inoculation, compared to untreated control. In kind it is in vivo. Here is the method: Example B1: Alternaria solani/Tomato/Leaf Disc (Early Blight) Tomato leaf disks cv. Baby are placed on agar in multiwell plates (24-well format) and sprayed with the formulated test compound diluted in water. The leaf disks are inoculated with a spore suspension of the fungus 2 days after application. The inoculated leaf disks are incubated at 23° C./21° C.

Data set [7] relates to Gibberella zeae (Fusarium graminearum). The data set is described as follows: whole plant or invertebrate. The data set is classed as in vivo. The settings on record: in Triticum aestivum, read-out: control of Gibberella zeae.
Another data set relates to Pyrenophora teres. The data set is described as follows: Pyrenophora teres / barley / leaf disc preventative (net blotch). In kind it is in vivo. Conditions: foliar, barley leaf segments, inoculated 2 days after application. An outline of the steps:
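Barley cv. Hasso leaf segments on agar sprayed with formulated compound, inoculated with spores 2 days later. Incubated at 20 °C, 65% rh, 12 h light/dark; disease control versus untreated assessed 5–7 days after application.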

The subject of data set [8] is Mycosphaerella graminicola (Septoria tritici). Briefly: Mycosphaerella graminicola (Septoria tritici) / liquid culture (Septoria blotch). In kind it is cell-based. Conditions: Zymoseptoria tritici, growth inhibition photometrically 4-5 days after application, read-out: control of Mycosphaerella graminicola. Summed up:
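Conidia suspended in potato dextrose broth and added to test compound supplied in DMSO in 96-well plates. Incubated at 24 °C, and growth inhibition read photometrically 4-5 days after application.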

Data set [9] relates to Blumeria graminis f. sp. tritici (Erysiphe graminis f. sp. tritici). The data set is described as follows: Blumeria graminis f. sp. tritici / wheat / leaf disc preventative (powdery mildew on wheat). In kind it is in vivo. Conditions: foliar, wheat leaf segments, inoculated 1 day after application. Summed up: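 Wheat cv. Kanzler leaf segments on agar sprayed with formulated compound in water, inoculated 1 day later by shaking mildew-infected plants overhead. Incubated at 20° C, 60% rh, 24 h dark then 12 h light/12 h dark. Percent disease control versus untreated scored 6-8 days after application.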

In data set [10] the test system is Monographella nivalis (Microdochium nivale). The data set is described as follows: Monographella nivalis (Microdochium nivale) / liquid culture (foot rot cereals). The settings on record: growth inhibition photometrically 4-5 days after application, read-out: control of Monographella nivalis. The data set is classed as cell-based. An outline of the steps:
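Fungal conidia mixed directly into potato dextrose broth and added to test compound delivered in DMSO. Incubated at 24° C; growth inhibition read photometrically 4-5 days after application.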

The test system of data set [11] is Puccinia recondita f. sp. tritici. Briefly: Puccinia recondita f. sp. tritici / wheat / leaf disc curative (brown rust). In kind it is in vivo. The settings on record: 200 ppm, wheat leaf segments, applied 1 day after inoculation. As for the experimental part: Example B11: Puccinia recondita f. Sp. Tritici/Wheat/Leaf Disc Curative (Brown Rust)
Wheat leaf segments cv. Kanzler are placed on agar in multiwell plates (24-well format). The leaf segments are inoculated with a spore suspension of the fungus. Plates are stored in darkness at 19° C. and 75% rh. The formulated test compound diluted in water is applied 1 day after inoculation. The leaf segments are incubated at 19° C. and 75% rh under a light regime of 12 h light/12 h darkness in a climate cabinet and the activity of a compound is assessed as percent disease control compared to untreated when an appropriate level of disease damage appears in untreated check leaf segments (6-8 days after application).

Data set [12] deals with Fusarium culmorum. The data set is described as follows: whole plant or invertebrate. The data set is classed as in vivo. The settings on record: in Triticum aestivum, read-out: control of Fusarium culmorum.

With `Cn1ncc(C(C)(CNC(=O)c2cc(-c3ccc(F)cc3F)on2)c2cccc(Cl)n2)c1Cl` (centres unmarked) [Compound P-26, N-[2-(5-chloro-1-methyl-pyrazol-4-yl)-2-(6-chloro-2-pyridyl)propyl]-5-(2,4-difluorophenyl) isoxazole-3-carboxamide], the inhibition of growth at 20 ppm (in the data set on Sclerotinia sclerotiorum; in data set [1]; with Fusarium culmorum [4]; in data set [5]; in data set [6]; in [8]) was no less than 80% each time. Moreover, the inhibition of growth at 20 ppm in data set [10] is no less than 80%. Moreover, the pest or weed control at 200 ppm (in [2]; in data set [3]; with Alternaria solani; in [7]; in the data set on Pyrenophora teres; in data set [9]) was no less than 80% each time.
For the molecule `Cc1ccc(C(C)(CNC(=O)c2cc(-c3ccc(F)cc3F)on2)c2cnn(C)c2)nc1` (centres unmarked) [Compound P-19, 5-(2,4-difluorophenyl)-N-[2-(1-methylpyrazol-4-yl)-2-(5-methyl-2-pyridyl)propyl] isoxazole-3-carboxamide], the “control of Puccinia recondita f. sp. tritici” value in data set [11] is given as “at least 80%”. The inhibition of growth at 20 ppm in data set [1], in data set [5], in data set [8] and in data set [10] was no less than 80% in each case. Besides, the pest or weed control at 200 ppm (in the data set on Alternaria solani; with Pyrenophora teres; in data set [9]) was no less than 80% each time.
Broadly, the melting point is the temperature, or range, at which the solid turns liquid. Consider `Cn1cc(C(C)(CNC(=O)c2cc(-c3ccc(F)cc3F)no2)c2cccc(Cl)n2)cn1` (centres unmarked) [Compound P-42, N-[2-(6-chloro-2-pyridyl)-2-(1-methylpyrazol-4-yl)propyl]-3-(2,4-difluorophenyl) isoxazole-5-carboxamide], for which the melting point was in the range of 126 to 128 °C. In the data set with Sclerotinia sclerotiorum, the inhibition of growth at 20 ppm was no less than 80%. For the same molecule, the inhibition of growth at 20 ppm in data set [1] is no less than 80%. In [2], this molecule came in with a pest or weed control at 200 ppm of no less than 80%. For the same molecule, the pest or weed control at 200 ppm in [3] is no less than 80%. For the same molecule, the inhibition of growth at 20 ppm with Fusarium culmorum [4] was no less than 80%. In addition, the pest or weed control at 200 ppm in the data set on Fusarium culmorum [12] is no less than 80%. In data set [6], the inhibition of growth at 20 ppm was no less than 80%. Besides, the pest or weed control at 200 ppm in data set [7] is no less than 80%. Besides, the pest or weed control at 200 ppm in the data set with Pyrenophora teres was no less than 80%. Further, the inhibition of growth at 20 ppm in [8] is no less than 80%. Moreover, the inhibition of growth at 20 ppm in [10] is no less than 80%.
As for `Cn1cc(C(C)(CNC(=O)c2cc(-c3ccc(F)cc3F)on2)c2cccc(Cl)n2)cn1` (centres unmarked) [Compound P-10, N-[2-(6-chloro-2-pyridyl)-2-(1-methylpyrazol-4-yl)propyl]-5-(2,4-difluorophenyl)isoxazole-3-carboxamide], the inhibition of growth at 20 ppm (in the data set with Sclerotinia sclerotiorum; in [1]; with Fusarium culmorum [4]; in [5]; in [6]; in data set [8]) was no less than 80% throughout. For the same molecule, the inhibition of growth at 20 ppm in data set [10] was no less than 80%. The pest or weed control at 200 ppm (in data set [2]; in [3]; in the data set on Fusarium culmorum [12]; in the data set on Alternaria solani; in the data set with Pyrenophora teres; in [9]) was no less than 80% throughout.
Take `CO/N=C(\C)c1cccc(C(C)(CNC(=O)c2cc(-c3ccc(F)cc3F)on2)c2cnn(C)c2)n1` (centres unmarked) [Compound P-49, 5-(2,4-difluorophenyl)-N-[2-[6-[(E)-N-methoxy-C-methyl-carbonimidoyl]-2-pyridyl]-2-(1-methylpyrazol-4-lyl)propyl]isoxazole-3-carboxamide]: the inhibition of growth at 20 ppm (in the data set on Sclerotinia sclerotiorum; in data set [1]; in the data set on Fusarium culmorum [4]; in data set [5]; in data set [6]; in [8]) was no less than 80% throughout. Besides, the inhibition of growth at 20 ppm in data set [10] is no less than 80%. In addition, the pest or weed control at 200 ppm (in data set [2]; in data set [3]; in the data set with Fusarium culmorum [12]; in the data set with Alternaria solani; in the data set on Pyrenophora teres; in [9]) was no less than 80% each time.
